Source: ChEMBL document CHEMBL3124828, “A 2,6,9-hetero-trisubstituted purine inhibitor exhibits potent biological effects against multiple myeloma cells” (Bioorg Med Chem, 2013)
Calls of active or inactive are those of the source. The rule behind the calls is not given here.

Assays:
OCI-AML2 = experiment: Cytotoxicity against human OCI-AML2 cells after 72 hrs by MTS assay; type: functional, cell-based
DU-145 = experiment: Cytotoxicity against human DU145 cells after 72 hrs by MTS assay; type: functional, cell-based
MDA-MB-468 = experiment: Cytotoxicity against human MDA-MB-468 cells after 72 hrs by MTS assay; type: functional, cell-based
[1] = molecular target: Signal transducer and activator of transcription 3 (Homo sapiens) (UniProt P40763); experiment: Displacement of FAM-GpYLPQTV-NH2 from full-length Stat3 SH2 domain (unknown origin) up to 400 uM by fluorescence polarization
Signal transducer and activator of transcription 3 (Homo sapiens), sequence (P40763 whole entry, the tested form may be a part): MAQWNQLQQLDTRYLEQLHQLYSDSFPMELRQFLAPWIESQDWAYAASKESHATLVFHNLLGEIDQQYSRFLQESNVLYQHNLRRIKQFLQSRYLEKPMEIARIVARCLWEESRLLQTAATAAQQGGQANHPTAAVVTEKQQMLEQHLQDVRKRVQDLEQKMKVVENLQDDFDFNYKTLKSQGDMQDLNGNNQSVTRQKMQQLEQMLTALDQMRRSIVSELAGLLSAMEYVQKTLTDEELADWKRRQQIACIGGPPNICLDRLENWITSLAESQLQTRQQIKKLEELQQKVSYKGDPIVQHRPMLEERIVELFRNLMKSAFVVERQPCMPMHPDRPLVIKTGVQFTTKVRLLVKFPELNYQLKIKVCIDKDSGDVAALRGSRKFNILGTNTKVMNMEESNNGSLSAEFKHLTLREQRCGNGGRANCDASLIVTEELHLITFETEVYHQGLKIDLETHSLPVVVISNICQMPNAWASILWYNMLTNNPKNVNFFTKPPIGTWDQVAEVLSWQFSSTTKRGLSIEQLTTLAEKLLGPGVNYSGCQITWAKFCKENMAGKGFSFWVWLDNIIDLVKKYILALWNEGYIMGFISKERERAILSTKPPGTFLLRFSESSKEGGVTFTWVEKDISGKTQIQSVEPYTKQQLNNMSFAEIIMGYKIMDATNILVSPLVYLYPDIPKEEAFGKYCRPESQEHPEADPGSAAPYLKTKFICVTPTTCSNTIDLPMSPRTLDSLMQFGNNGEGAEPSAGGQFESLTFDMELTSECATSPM

JJN-3 [2] = experiment: Induction of apoptosis in human JJN-3 cells assessed as late apoptotic cells at 15 uM after 48 hrs by annexinV/propidium iodide staining (reference value: 9.59%); type: functional
[3] = Induction of apoptosis in human XG6 cells assessed as viable cells at 15 uM after 48 hrs by annexinV/propidium iodide staining (reference value: 83.3%); type: functional; conditions: XG6, 48 h, read-out: Activity
[4] = Induction of apoptosis in human XG6 cells assessed as early apoptotic cells at 15 uM after 48 hrs by annexinV/propidium iodide staining (reference value: 8.62%); type: functional
[5] = Induction of apoptosis in human XG6 cells assessed as late apoptotic cells at 15 uM after 48 hrs by annexinV/propidium iodide staining (reference value: 7.78%); type: functional
JJN-3 [6] = experiment: Induction of apoptosis in human JJN-3 cells assessed as viable cells at 15 uM after 48 hrs by annexinV/propidium iodide staining (reference value: 75.9%); type: functional; conditions: JJN-3, 48 h, read-out: Activity
JJN-3 [7] = experiment: Induction of apoptosis in human JJN-3 cells assessed as early apoptotic cells at 15 uM after 48 hrs by annexinV/propidium iodide staining (reference value: 13.3%); type: functional

With CC(C)CCNc1nc(NCc2ccc(C3CCCCC3)cc2)nc2c1ncn2CC(=O)OCOC(=O)C(C)(C)C the Activity (OCI-AML2) was “inactive”, the Activity (DU-145) was “inactive” and the Activity (MDA-MB-468) was “inactive”.
With CCOC(=O)Cn1cnc2c(Oc3ccc([N+](=O)[O-])cc3)nc(NCc3ccc(C4CCCCC4)cc3)nc21 the Activity (OCI-AML2) was “inactive”, the Activity (DU-145) was “inactive” and the Activity (MDA-MB-468) was “inactive”.
In the case of CCOC(=O)Cn1cnc2c(N3CCOCC3)nc(NC(=O)C3CCCCC3)nc21, the Activity (OCI-AML2) is reported as “inactive”, the Activity (DU-145) is reported as “inactive” and the Activity (MDA-MB-468) is reported as “inactive”.
With CC(=O)OCOC(=O)Cn1cnc2c(Nc3ccc(F)cc3)nc(NCc3ccc(C4CCCCC4)cc3)nc21 the inhibition [1] was “inactive”, the Activity (OCI-AML2) was “inactive” and the Activity (DU-145) was “inactive”. For the same compound, the Activity (MDA-MB-468) was “inactive”.
For CCOC(=O)Cn1cnc2c(NCc3ccco3)nc(NCc3ccc(C4CCCCC4)cc3)nc21, the Activity (OCI-AML2) was “inactive”, the Activity (DU-145) was “inactive” and the Activity (MDA-MB-468) was “inactive”.
For NS(=O)(=O)OCCn1cnc2c(N3CCOCC3)nc(NCc3ccc(C4CCCCC4)cc3)nc21, the Activity (OCI-AML2) was “inactive”, the Activity (DU-145) was “inactive” and the Activity (MDA-MB-468) was “inactive”.
For CC(C)(C)C(=O)OCOC(=O)Cn1cnc2c(Nc3ccc(F)cc3)nc(NCc3ccc(C4CCCCC4)cc3)nc21, the inhibition [1] was “inactive”, the Activity (OCI-AML2) was “inactive” and the Activity (DU-145) was “inactive”. For the same compound, the Activity (MDA-MB-468) was “inactive”.
With O=C(Nc1nc(N2CCOCC2)c2ncn(CCc3nnn[nH]3)c2n1)C1CCCCC1 the Activity (OCI-AML2) was “inactive”, the Activity (DU-145) was “inactive” and the Activity (MDA-MB-468) was “inactive”.
In the case of CC(C)(C)C(=O)OCOC(=O)Cn1cnc2c(N3CCOCC3)nc(NCc3ccc(C4CCCCC4)cc3)nc21, the Activity (OCI-AML2) is reported as “inactive”, the Activity (DU-145) is reported as “inactive” and the Activity (MDA-MB-468) is reported as “inactive”.
In the case of c1coc(CNc2nc(NCc3ccc(C4CCCCC4)cc3)nc3c2ncn3CCc2nnn[nH]2)c1, the inhibition [1] is reported as “inactive”, the Activity (OCI-AML2) is reported as “inactive” and the Activity (DU-145) is reported as “inactive”. The Activity (MDA-MB-468) was “inactive”.
For CC(C)(C)C(=O)OCOC(=O)Cn1cnc2c(NCc3ccco3)nc(NCc3ccc(C4CCCCC4)cc3)nc21, the Activity (OCI-AML2) was “inactive”, the Activity (DU-145) was “inactive” and the Activity (MDA-MB-468) was “inactive”.
With NS(=O)(=O)OCCn1cnc2c(N3CCOCC3)nc(NC(=O)C3CCCCC3)nc21 the inhibition [1] was “inactive”, the Activity (OCI-AML2) was “inactive” and the Activity (DU-145) was “inactive”. The Activity (MDA-MB-468) was “inactive”.
In the case of CC(C)CNc1nc(NCc2ccc(C3CCCCC3)cc2)nc2c1ncn2CC(=O)OCOC(=O)C(C)(C)C, the Activity (OCI-AML2) is reported as “inactive”, the Activity (DU-145) is reported as “inactive” and the Activity (MDA-MB-468) is reported as “inactive”.
With CCOC(=O)Cn1cnc2c(NC3CCCC3)nc(NCc3ccc(C4CCCCC4)cc3)nc21 the Activity (OCI-AML2) was “inactive”, the Activity (DU-145) was “inactive” and the Activity (MDA-MB-468) was “inactive”.
For CC(=O)OCOC(=O)Cn1cnc2c(Oc3ccc([N+](=O)[O-])cc3)nc(NCc3ccc(C4CCCCC4)cc3)nc21, the Activity (OCI-AML2) was “inactive”, the Activity (DU-145) was “inactive” and the Activity (MDA-MB-468) was “inactive”.
For CC(C)(C)C(=O)OCOC(=O)Cn1cnc2c(NC3CCCC3)nc(NCc3ccc(C4CCCCC4)cc3)nc21, the Activity (OCI-AML2) was “inactive”, the Activity (DU-145) was “inactive” and the Activity (MDA-MB-468) was “inactive”.
For CC(C)CNc1nc(NCc2ccc(C3CCCCC3)cc2)nc2c1ncn2CCc1nnn[nH]1, the Activity (OCI-AML2) was “inactive”, the Activity (DU-145) was “inactive” and the Activity (MDA-MB-468) was “inactive”.
With c1cc(C2CCCCC2)ccc1CNc1nc(N2CCOCC2)c2ncn(CCc3nnn[nH]3)c2n1 the Activity (OCI-AML2) was “inactive”, the Activity (DU-145) was “inactive” and the Activity (MDA-MB-468) was “inactive”.
In the case of CCOC(=O)Cn1cnc2c(NCC(C)C)nc(NCc3ccc(C4CCCCC4)cc3)nc21, the Activity (OCI-AML2) is reported as “inactive”, the Activity (DU-145) is reported as “inactive” and the Activity (MDA-MB-468) is reported as “inactive”.
In the case of c1cc(C2CCCCC2)ccc1CNc1nc(NC2CCCC2)c2ncn(CCc3nnn[nH]3)c2n1, the Activity (OCI-AML2) is reported as “inactive”, the Activity (DU-145) is reported as “inactive” and the Activity (MDA-MB-468) is reported as “inactive”.
For CC(C)CCNc1nc(NCc2ccc(C3CCCCC3)cc2)nc2c1ncn2CCc1nnn[nH]1, the Activity (OCI-AML2) was “inactive”, the Activity (DU-145) was “inactive” and the Activity (MDA-MB-468) was “inactive”.
In the case of CC(=O)OCOC(=O)Cn1cnc2c(NCc3ccco3)nc(NCc3ccc(C4CCCCC4)cc3)nc21, the Activity (OCI-AML2) is reported as “inactive”, the Activity (DU-145) is reported as “inactive” and the Activity (MDA-MB-468) is reported as “inactive”.
In the case of CC(C)(C)C(=O)OCOC(=O)Cn1cnc2c(Oc3ccc([N+](=O)[O-])cc3)nc(NCc3ccc(C4CCCCC4)cc3)nc21, the Activity (OCI-AML2) is reported as “inactive”, the Activity (DU-145) is reported as “inactive” and the Activity (MDA-MB-468) is reported as “inactive”.
With CCOC(=O)Cn1cnc2c(Nc3ccc(F)cc3)nc(NCc3ccc(C4CCCCC4)cc3)nc21 the inhibition [1] was “inactive”, the Activity (OCI-AML2) was “inactive” and the Activity (DU-145) was “inactive”. For the same compound, the Activity (MDA-MB-468) was “inactive”.
For CC(C)CNc1nc(NCc2ccc(C3CCCCC3)cc2)nc2c1ncn2CCOS(N)(=O)=O, the Activity (OCI-AML2) was “inactive”, the Activity (DU-145) was “inactive” and the Activity (MDA-MB-468) was “inactive”.
In the case of O=[N+]([O-])c1ccc(Oc2nc(NCc3ccc(C4CCCCC4)cc3)nc3c2ncn3CCc2nnn[nH]2)cc1, the Activity (OCI-AML2) is reported as “inactive”, the Activity (DU-145) is reported as “inactive” and the Activity (MDA-MB-468) is reported as “inactive”.
In the case of CC(=O)OCOC(=O)Cn1cnc2c(NCCC(C)C)nc(NCc3ccc(C4CCCCC4)cc3)nc21, the Activity (OCI-AML2) is reported as “inactive”, the Activity (DU-145) is reported as “inactive” and the Activity (MDA-MB-468) is reported as “inactive”.
N[C@@H](Cc1ccc(N(CCCl)CCCl)cc1)C(=O)O [MELPHALAN] gave an Activity (JJN-3 [2]) of 23.7%, a viability at 15 µM [3] of 30.8% and an Activity [4] of 34%. It also gave an Activity [5] of 34.8%, a viability at 15 µM (JJN-3 [6]) of 54.5% and an Activity (JJN-3 [7]) of 19.3%.
For CC(=O)OCOC(=O)Cn1cnc2c(N3CCOCC3)nc(NCc3ccc(C4CCCCC4)cc3)nc21, the Activity (OCI-AML2) was “inactive”, the Activity (DU-145) was “inactive” and the Activity (MDA-MB-468) was “inactive”.
With CC(=O)OCOC(=O)Cn1cnc2c(NC3CCCC3)nc(NCc3ccc(C4CCCCC4)cc3)nc21 the Activity (OCI-AML2) was “inactive”, the Activity (DU-145) was “inactive” and the Activity (MDA-MB-468) was “inactive”.
In the case of NS(=O)(=O)OCCn1cnc2c(NCc3ccco3)nc(NCc3ccc(C4CCCCC4)cc3)nc21, the Activity (OCI-AML2) is reported as “inactive”, the Activity (DU-145) is reported as “inactive” and the Activity (MDA-MB-468) is reported as “inactive”.
With NS(=O)(=O)OCCn1cnc2c(Oc3ccc([N+](=O)[O-])cc3)nc(NCc3ccc(C4CCCCC4)cc3)nc21 the Activity (OCI-AML2) was “inactive”, the Activity (DU-145) was “inactive” and the Activity (MDA-MB-468) was “inactive”.
For CC(C)CCNc1nc(NCc2ccc(C3CCCCC3)cc2)nc2c1ncn2CCOS(N)(=O)=O, the Activity (OCI-AML2) was “inactive”, the Activity (DU-145) was “inactive” and the Activity (MDA-MB-468) was “inactive”.
With CCOC(=O)Cn1cnc2c(NCCC(C)C)nc(NCc3ccc(C4CCCCC4)cc3)nc21 the Activity (OCI-AML2) was “inactive”, the Activity (DU-145) was “inactive” and the Activity (MDA-MB-468) was “inactive”.
In the case of CC(=O)OCOC(=O)Cn1cnc2c(NCC(C)C)nc(NCc3ccc(C4CCCCC4)cc3)nc21, the Activity (OCI-AML2) is reported as “inactive”, the Activity (DU-145) is reported as “inactive” and the Activity (MDA-MB-468) is reported as “inactive”.
For CC(C)(C)C(=O)OCOC(=O)Cn1cnc2c(N3CCOCC3)nc(NC(=O)C3CCCCC3)nc21, the Activity (OCI-AML2) was “inactive”, the Activity (DU-145) was “inactive” and the Activity (MDA-MB-468) was “inactive”.
With NS(=O)(=O)OCCn1cnc2c(NC3CCCC3)nc(NCc3ccc(C4CCCCC4)cc3)nc21 the Activity (OCI-AML2) was “inactive”, the Activity (DU-145) was “inactive” and the Activity (MDA-MB-468) was “inactive”.
For CCOC(=O)Cn1cnc2c(N3CCOCC3)nc(NCc3ccc(C4CCCCC4)cc3)nc21, the Activity (OCI-AML2) was “inactive”, the Activity (DU-145) was “inactive” and the Activity (MDA-MB-468) was “inactive”.
In the case of Fc1ccc(Nc2nc(NCc3ccc(C4CCCCC4)cc3)nc3c2ncn3CCc2nnn[nH]2)cc1, the inhibition [1] is reported as “inactive”, the Activity (OCI-AML2) is reported as “inactive” and the Activity (DU-145) is reported as “inactive”. For the same compound, the Activity (MDA-MB-468) was “inactive”.
For CC(=O)OCOC(=O)Cn1cnc2c(N3CCOCC3)nc(NC(=O)C3CCCCC3)nc21, the Activity (OCI-AML2) was “inactive”, the Activity (DU-145) was “inactive” and the Activity (MDA-MB-468) was “inactive”.
